pIC50: −log10 of the molar value. A value given as a limit tells only on which side of the number the result lay.

In general, pIC50 refers to the negative decadic logarithm of the IC50, by convention in mol/L.

One experiment has as its target c-Kit (Homo sapiens (Human), UniProt P10721). The experiment in a line: Inhibition of c-Kit kinase activity (HTRF KinEASE-TK). It is filed as biochemical. Particulars: biochemical, HTRF KinEASE-TK. An outline of the steps: (§1)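 Recombinant kinases (2 nM CSF1R and c-Kit, 10 nM PDGFRα/β, 2× working) preincubated 1 h with compound in 50 mM HEPES pH 7.4, 5 mM MgCl2 (c-Kit) or 10 mM (others), 2 mM MnCl2; 2× ATP: c-Kit 16 μM, PDGFRα 1 μM, PDGFRβ 40 μM, CSF1R 20 μM. 120 min reaction at rt; TR-FRET 665/620 nm; IC50 by 4-parameter fit.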

The target in a further experiment is PDGFRα (Homo sapiens (Human), UniProt P16234). Nature of the experiment: Inhibition of PDGFRα kinase activity (HTRF KinEASE-TK). Particulars: biochemical, HTRF KinEASE-TK. In outline:
as §1

The next experiment has as its target PDGFRβ (Homo sapiens (Human), UniProt P09619). The experiment in a line: Inhibition of PDGFRβ kinase activity (HTRF KinEASE-TK). Particulars: biochemical, HTRF KinEASE-TK. In outline: as §1
On the technique in general: Time-resolved FRET reads energy transfer from a long-lived donor to a nearby acceptor.

For a further experiment, the target named is CSF1R (Homo sapiens (Human), UniProt P07333). The experiment in a line: Inhibition of CSF1R kinase activity (HTRF KinEASE-TK). Particulars: biochemical, HTRF KinEASE-TK. In outline:
as §1

In the next experiment the target is FLT3 (Homo sapiens (Human), UniProt P36888). The experiment in a line: Inhibition of FLT3 kinase activity (HTRF KinEASE-TK). It is filed as biochemical. Particulars: biochemical, HTRF KinEASE-TK. An outline of the steps: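 FLT3 tyrosine kinase activity was measured with the HTRF KinEASE-TK kit by following phosphorylation of a biotinylated TK peptide. After the 45 min reaction, 10 μL of detection mix was added: 0.2 μM (2×) Streptavidin-XL665 and 2 μM (2×) TK-Antibody-Cryptate in detection buffer. After 60 min, TR-FRET was read on an Envision as the 665 nm/620 nm emission ratio with 320 nm excitation.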

Experiment [1] has as its system Phospho-KIT (Y703) in M07e cells. The experiment in a line: Phospho-KIT (Y703) cellular assay in M07e cells. It is filed as cell-based. Particulars: M-07e; Phospho-KIT (Y703), M07e cells; read-out: M07e Cell IC50. In outline: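 Serum-starved M07e cells preincubated 50 min at 37° C with 11-point half-log compound titration, then stimulated 10 min with SCF at 90.9 ng/mL final. Fixed, permeabilized cells stained for phospho-KIT Y703 and read by flow cytometry (live-gated geometric mean); IC50 by 4-parameter fit normalized to DMSO and positive control.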

CSF1R, sequence (P07333 20-972): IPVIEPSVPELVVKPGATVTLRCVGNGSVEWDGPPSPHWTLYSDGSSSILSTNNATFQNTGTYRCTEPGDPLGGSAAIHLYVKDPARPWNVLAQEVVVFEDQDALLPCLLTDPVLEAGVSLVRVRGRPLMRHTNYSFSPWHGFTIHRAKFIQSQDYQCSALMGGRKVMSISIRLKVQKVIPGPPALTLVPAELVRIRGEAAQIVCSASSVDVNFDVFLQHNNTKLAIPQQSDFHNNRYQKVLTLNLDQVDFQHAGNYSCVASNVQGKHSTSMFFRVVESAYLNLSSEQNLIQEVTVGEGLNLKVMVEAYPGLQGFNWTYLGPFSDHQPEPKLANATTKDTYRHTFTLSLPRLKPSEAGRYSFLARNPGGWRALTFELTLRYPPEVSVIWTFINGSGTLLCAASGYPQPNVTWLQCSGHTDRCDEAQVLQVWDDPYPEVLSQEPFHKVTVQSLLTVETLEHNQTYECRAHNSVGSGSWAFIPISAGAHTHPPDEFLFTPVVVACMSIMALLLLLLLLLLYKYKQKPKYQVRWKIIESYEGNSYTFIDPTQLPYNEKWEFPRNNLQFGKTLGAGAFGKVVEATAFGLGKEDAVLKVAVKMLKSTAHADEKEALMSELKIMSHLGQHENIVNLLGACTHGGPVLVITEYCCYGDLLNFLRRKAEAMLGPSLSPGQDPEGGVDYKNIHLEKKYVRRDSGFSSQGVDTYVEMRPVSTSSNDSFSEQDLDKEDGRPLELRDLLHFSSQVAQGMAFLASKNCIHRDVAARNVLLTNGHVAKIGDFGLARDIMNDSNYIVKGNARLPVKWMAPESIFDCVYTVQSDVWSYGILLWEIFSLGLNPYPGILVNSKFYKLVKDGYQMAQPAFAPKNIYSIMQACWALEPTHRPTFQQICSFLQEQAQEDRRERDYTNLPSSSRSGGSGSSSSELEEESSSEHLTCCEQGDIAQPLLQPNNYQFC
c-Kit, sequence (P10721 26-976): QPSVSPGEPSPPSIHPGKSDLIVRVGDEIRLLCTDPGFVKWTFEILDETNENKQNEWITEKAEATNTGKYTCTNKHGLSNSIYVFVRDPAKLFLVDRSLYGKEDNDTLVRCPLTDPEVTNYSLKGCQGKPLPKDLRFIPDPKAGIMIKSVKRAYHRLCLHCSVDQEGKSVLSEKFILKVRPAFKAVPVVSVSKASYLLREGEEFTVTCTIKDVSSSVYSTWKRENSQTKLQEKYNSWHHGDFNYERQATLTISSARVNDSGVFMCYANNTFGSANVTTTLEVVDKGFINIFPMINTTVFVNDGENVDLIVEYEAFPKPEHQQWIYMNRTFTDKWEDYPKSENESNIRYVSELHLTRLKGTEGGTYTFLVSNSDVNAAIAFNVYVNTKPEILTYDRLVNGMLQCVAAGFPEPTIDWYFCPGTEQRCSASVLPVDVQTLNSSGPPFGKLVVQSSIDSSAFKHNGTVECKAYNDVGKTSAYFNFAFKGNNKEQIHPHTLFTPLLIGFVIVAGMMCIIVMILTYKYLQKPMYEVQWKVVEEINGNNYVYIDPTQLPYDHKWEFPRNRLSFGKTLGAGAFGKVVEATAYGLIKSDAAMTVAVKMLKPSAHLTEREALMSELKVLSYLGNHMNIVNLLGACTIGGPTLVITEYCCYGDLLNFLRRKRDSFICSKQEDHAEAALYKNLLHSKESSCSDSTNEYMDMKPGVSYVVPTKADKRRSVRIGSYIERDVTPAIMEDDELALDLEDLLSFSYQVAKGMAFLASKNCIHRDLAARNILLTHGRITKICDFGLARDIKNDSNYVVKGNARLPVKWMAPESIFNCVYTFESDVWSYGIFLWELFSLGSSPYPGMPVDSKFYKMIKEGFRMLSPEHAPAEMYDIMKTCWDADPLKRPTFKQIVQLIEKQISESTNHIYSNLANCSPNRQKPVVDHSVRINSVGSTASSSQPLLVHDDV
PDGFRα, sequence (P16234 24-1089): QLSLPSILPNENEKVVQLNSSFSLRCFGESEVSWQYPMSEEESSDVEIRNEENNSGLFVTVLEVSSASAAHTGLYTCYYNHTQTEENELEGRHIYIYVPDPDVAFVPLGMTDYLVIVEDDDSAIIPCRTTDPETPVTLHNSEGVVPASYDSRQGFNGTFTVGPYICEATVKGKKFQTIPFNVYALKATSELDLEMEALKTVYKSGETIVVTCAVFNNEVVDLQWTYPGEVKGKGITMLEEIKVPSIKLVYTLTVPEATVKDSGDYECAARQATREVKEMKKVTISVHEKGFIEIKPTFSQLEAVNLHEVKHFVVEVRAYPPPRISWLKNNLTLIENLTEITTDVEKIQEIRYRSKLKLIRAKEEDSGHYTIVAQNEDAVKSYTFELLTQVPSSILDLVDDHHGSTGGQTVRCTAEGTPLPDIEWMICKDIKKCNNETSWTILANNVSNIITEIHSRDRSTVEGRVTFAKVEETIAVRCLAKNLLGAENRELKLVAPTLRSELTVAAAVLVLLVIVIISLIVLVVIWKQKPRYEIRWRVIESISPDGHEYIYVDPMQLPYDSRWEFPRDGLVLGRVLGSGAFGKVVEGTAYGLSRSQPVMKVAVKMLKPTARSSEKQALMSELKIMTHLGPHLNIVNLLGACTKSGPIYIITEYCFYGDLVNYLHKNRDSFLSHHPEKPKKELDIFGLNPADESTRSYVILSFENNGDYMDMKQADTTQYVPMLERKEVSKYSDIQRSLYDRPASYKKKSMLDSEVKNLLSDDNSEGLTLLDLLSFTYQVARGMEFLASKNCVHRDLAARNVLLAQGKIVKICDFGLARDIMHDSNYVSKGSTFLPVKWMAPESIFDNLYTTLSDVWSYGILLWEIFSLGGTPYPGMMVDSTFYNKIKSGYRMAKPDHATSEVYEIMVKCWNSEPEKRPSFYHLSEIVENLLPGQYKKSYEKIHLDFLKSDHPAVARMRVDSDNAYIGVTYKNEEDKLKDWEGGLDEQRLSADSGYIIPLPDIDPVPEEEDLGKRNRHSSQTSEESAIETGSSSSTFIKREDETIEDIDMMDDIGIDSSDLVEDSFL
FLT3, sequence (P36888 27-993): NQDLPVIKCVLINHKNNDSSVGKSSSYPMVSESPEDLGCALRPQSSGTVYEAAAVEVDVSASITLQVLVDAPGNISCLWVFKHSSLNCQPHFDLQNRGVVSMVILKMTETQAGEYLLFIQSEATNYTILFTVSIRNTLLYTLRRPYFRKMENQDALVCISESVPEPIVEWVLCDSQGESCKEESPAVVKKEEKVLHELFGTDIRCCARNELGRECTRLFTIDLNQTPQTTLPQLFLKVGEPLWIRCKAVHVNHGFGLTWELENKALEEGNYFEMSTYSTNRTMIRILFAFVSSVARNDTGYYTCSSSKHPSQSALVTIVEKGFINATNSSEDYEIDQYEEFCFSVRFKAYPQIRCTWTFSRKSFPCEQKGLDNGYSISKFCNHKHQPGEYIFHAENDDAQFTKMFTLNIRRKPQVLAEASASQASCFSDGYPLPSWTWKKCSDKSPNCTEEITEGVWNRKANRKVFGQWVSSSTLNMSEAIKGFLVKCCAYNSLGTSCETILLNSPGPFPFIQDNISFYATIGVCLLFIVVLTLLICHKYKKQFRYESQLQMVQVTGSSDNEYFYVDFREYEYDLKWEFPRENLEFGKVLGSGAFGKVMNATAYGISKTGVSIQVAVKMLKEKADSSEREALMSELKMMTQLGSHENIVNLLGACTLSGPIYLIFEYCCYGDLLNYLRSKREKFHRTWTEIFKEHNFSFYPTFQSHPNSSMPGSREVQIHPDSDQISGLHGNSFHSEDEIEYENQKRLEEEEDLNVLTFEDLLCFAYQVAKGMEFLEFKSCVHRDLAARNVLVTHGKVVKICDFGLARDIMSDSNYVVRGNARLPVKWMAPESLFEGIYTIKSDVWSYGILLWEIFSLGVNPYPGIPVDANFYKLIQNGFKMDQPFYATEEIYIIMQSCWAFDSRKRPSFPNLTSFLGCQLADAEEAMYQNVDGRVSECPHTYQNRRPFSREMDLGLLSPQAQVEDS
PDGFRβ, sequence (P09619 33-1106): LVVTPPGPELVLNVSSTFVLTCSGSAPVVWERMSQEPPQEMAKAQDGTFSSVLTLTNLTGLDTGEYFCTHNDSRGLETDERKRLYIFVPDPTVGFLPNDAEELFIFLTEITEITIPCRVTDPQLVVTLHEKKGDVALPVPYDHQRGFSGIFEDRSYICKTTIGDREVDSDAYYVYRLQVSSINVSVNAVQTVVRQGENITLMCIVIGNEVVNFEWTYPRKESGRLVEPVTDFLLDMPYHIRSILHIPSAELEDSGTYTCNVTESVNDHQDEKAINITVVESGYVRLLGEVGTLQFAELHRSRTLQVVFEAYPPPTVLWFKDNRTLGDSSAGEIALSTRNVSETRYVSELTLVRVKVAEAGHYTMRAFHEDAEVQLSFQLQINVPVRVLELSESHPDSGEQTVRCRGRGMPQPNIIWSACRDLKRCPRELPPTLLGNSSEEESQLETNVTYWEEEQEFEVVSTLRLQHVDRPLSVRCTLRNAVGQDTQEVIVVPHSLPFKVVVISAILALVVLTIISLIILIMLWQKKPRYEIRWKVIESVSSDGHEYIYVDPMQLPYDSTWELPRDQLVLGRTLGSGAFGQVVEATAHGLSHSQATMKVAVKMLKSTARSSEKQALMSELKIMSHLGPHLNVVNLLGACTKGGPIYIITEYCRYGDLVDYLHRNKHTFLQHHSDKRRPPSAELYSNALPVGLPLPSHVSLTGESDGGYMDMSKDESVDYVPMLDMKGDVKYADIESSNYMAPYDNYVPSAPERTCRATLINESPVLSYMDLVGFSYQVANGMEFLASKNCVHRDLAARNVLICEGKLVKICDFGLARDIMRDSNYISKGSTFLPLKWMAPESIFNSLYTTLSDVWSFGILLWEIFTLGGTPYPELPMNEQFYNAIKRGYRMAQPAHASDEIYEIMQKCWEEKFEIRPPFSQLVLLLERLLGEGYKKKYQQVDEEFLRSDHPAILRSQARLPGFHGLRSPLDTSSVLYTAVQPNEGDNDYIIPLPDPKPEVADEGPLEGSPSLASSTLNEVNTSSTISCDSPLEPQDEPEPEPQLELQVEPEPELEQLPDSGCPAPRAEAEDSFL

On to `Nc1ncc(C(=O)Nc2cc(C(=O)Nc3cnc(C4CC4)cn3)c(F)cc2Cl)s1` [Example 205, 2-Amino-N-[2-chloro-5-[(5-cyclopropylpyrazin-2-yl)carbamoyl]-4-fluorophenyl]-1,3-thiazole-5-carboxamide], for which the negative-log IC50 (pIC50) is greater than 7.00 against c-Kit; 6.00 to 7.00 on PDGFRα; greater than 7.00 against PDGFRβ; greater than 7.00 against CSF1R; less than 6.00 on FLT3; greater than 7.00 in experiment [1].

With `Nc1ncc(C(=O)Nc2cc(C(=O)Nc3ccc(C(F)F)cn3)c(F)cc2Cl)s1` [Example 206, 2-Amino-N-[2-chloro-5-[[5-(difluoromethyl)pyridin-2-yl]carbamoyl]-4-fluorophenyl]-1,3-thiazole-5-carboxamide], the pIC50 at c-Kit is greater than 7.00; against PDGFRα, less than 6.00; on PDGFRβ, 6.00 to 7.00; on CSF1R it was 6.00 to 7.00; at FLT3 it was less than 6.00; in experiment [1] it was greater than 7.00.

As for `Nc1ncc(C(=O)Nc2cc(C(=O)Nc3ccc(OC(F)F)cn3)c(F)cc2Cl)s1` [Example 208, 2-Amino-N-[2-chloro-5-[[5-(difluoromethoxy)pyridin-2-yl]carbamoyl]-4-fluorophenyl]-1,3-thiazole-5-carboxamide], the pIC50 at c-Kit is greater than 7.00; against PDGFRα it was less than 6.00; against PDGFRβ it was 6.00 to 7.00; at CSF1R, 6.00 to 7.00; against FLT3 it was less than 6.00; in experiment [1], greater than 7.00.

Turning to `Nc1ncc(C(=O)Nc2cc(C(=O)Nc3ccc(OC4CC4)cn3)c(F)cc2Cl)s1` [Example 209, 2-Amino-N-[2-chloro-5-[(5-cyclopropyloxypyridin-2-yl)carbamoyl]-4-fluorophenyl]-1,3-thiazole-5-carboxamide], the pIC50 on c-Kit was greater than 7.00; against PDGFRα, less than 6.00; against PDGFRβ, 6.00 to 7.00; against CSF1R, 6.00 to 7.00; against FLT3, less than 6.00; in experiment [1], greater than 7.00.

On to `Nc1ncc(C(=O)Nc2cc(C(=O)Nc3ccc(OC(F)(F)F)cn3)c(F)cc2F)s1` [Example 210, 2-Amino-N-[2,4-difluoro-5-[[5-(trifluoromethoxy)pyridin-2-yl]carbamoyl]phenyl]-1,3-thiazole-5-carboxamide], for which the pIC50 against c-Kit is greater than 7.00; on PDGFRα it was less than 6.00; against PDGFRβ, 6.00 to 7.00; against CSF1R, 6.00 to 7.00; on FLT3 it was less than 6.00; in experiment [1] it was greater than 7.00.

For the compound `CCOc1ccc(NC(=O)c2cc(NC(=O)c3cnc(N)s3)c(F)cc2F)nc1` [Example 212, 2-Amino-N-[5-[(5-ethoxypyridin-2-yl)carbamoyl]-2,4-difluorophenyl]-1,3-thiazole-5-carboxamide], the pIC50 is greater than 7.00 at c-Kit; less than 6.00 at PDGFRα; less than 6.00 against PDGFRβ; less than 6.00 on CSF1R; less than 6.00 on FLT3; greater than 7.00 in experiment [1].

In the case of `Nc1ncc(C(=O)Nc2cc(C(=O)Nc3ccc(OCC(F)F)cn3)c(F)cc2F)s1` [Example 213, 2-Amino-N-[5-[[5-(2,2-difluoroethoxy)pyridin-2-yl]carbamoyl]-2,4-difluorophenyl]-1,3-thiazole-5-carboxamide], the pIC50 against c-Kit is greater than 7.00; on PDGFRα, less than 6.00; against PDGFRβ, less than 6.00; against CSF1R, less than 6.00; against FLT3, less than 6.00; in experiment [1], greater than 7.00.

As to `COCc1ccc(NC(=O)c2cc(NC(=O)c3cnc(N)s3)c(F)cc2F)nc1` [Example 215, 2-Amino-N-[2,4-difluoro-5-[[5-(methoxymethyl)pyridin-2-yl]carbamoyl]phenyl]-1,3-thiazole-5-carboxamide], the pIC50 against c-Kit was 6.00 to 7.00; at PDGFRα it was less than 6.00; at PDGFRβ, less than 6.00; against CSF1R it was less than 6.00; against FLT3, less than 6.00; in experiment [1], less than 6.00.

The values are drawn from patent US20250145606A1 (Arcus Biosciences, Inc., priority 2023, published 2025).
